The results in this text go back to US6870028B1 (priority 1995, dated 2005).

≈ marks a conversion by molar mass, not a printed value. Read-outs that look alike come from different tables or passages of the source.

Experiment [1] has as its system human ovarian carcinoma HEY. Kind of experiment: in vitro cytotoxicity versus human ovarian carcinoma HEY. It is filed as cell-based. The procedure: (§1) Coupling of the peptide A-B to amino acid moiety of C (5) was carried out in a similar way. [drawing 25] [drawing 26] [drawing 27] Testing of Compounds • 1. The cytotoxicity of compounds described herein have been tested as described in J. Immunol. Methods, 65, 55-63, 1983 and the results are provided in Table 4 below, wherein P388 refers to in vitro test versus murine leukaemia P388, U373 refers to in vitro human glioblastoma/astrocytoma U373, HEY refers to in vitro human ovarian carcinoma HEY, MCF7 refers to in vitro human breast cancer MCF7. • 2.

Experiment [2] deals with human glioblastoma/astrocytoma U373. Kind of experiment: in vitro cytotoxicity versus human glioblastoma/astrocytoma U373. It is filed as cell-based. To be noted: for IC50: U373 MG. On the procedure:
as §1

A further experiment deals with murine leukaemia P388. Kind of experiment: in vitro cytotoxicity versus murine leukaemia P388. To be noted: Mus musculus. It is filed as cell-based. On the procedure: as §1
For the next experiment, the system named is human breast cancer MCF7. Nature of the experiment: in vitro cytotoxicity versus human breast cancer MCF7. It is filed as cell-based. The procedure:
as §1

Experiment [3] concerns human mammary carcinoma MCF7 cells. Kind of experiment: antimitotic activity, percentage of mitotic cells in chromosome spreads. In kind it is cell-based. To be noted: for IC50: Homo sapiens; for IC50 / antimitotic activity, in words: 20 h treatment. The procedure: • 3. Compounds described herein were comparatively tested for their antimitotic activity against human mammary carcinoma MCF7 cells.
MCF7 cells were grown as a monolayer in RPMI supplemented with 15% fetal calf serum and antibiotics at 37° C. in humidified 10% CO2. All compounds were dissolved in dimethyl sulfoxide except for vinblastine (a known drug) which was a 1 mg/ml solution in physiological saline. Exponentially growing MCF7 cells were treated with different drug concentrations for 20 h, prepared for chromosome spreads, and the percentage of mitotic cells determined by fluorescence microscopy. Hemiasterlin, Hemiasterlin A and modified compounds were very potent antimitotic agents, with IC50 values of 0.3 nM and 3 nM respectively.

The subject of another experiment is MCF7 cells. Nature of the experiment: morphology of mitotic spindles by indirect immunofluorescence (β-tubulin antibody, bisbenzimide). In kind it is cell-based, human. The text has this: The effect of Hemiasterlin and Hemiasterlin A on the morphology of their mitotic spindles was examined by indirect immunofluorescence using a monoclonal antibody to β-tubulin and the distribution of their chromosomes using the fluorescent DNA dye bisbenzimide.

A further experiment has as its system P388 leukaemia cells. Nature of the experiment: in vivo P388 leukaemia model in mice.
[4] abbreviates: read-out: IC50 Values cell mitosis.

The IC50 is the midpoint of a concentration-inhibition curve. For `CN[C@H](C(=O)N[C@H](C(=O)N(C)[C@H](/C=C(\C)C(=O)N[C@@H](CCCNC(=N)N)C(=O)O)C(C)C)C(C)(C)C)C(C)(C)c1c[nH]c2ccccc12`, the IC50 in experiment [1] was 190 ng/mL (≈ 284 nM); in experiment [2], 270 ng/mL (≈ 404 nM); with murine leukaemia P388 it was 7.3 ng/mL (≈ 10.9 nM); in the experiment with human breast cancer MCF7, 6800 ng/mL (≈ 10200 nM).

Consider `CN[C@H](C(=O)N[C@H](C(=O)N(C)[C@H](/C=C(\C)C(=O)OC)C(C)C)C(C)(C)C)C(C)(C)c1cn(C)c2ccccc12`, for which the IC50 with human breast cancer MCF7 is 5.4 ng/mL (≈ 9.99 nM); in experiment [3] (setting [4]), 0.216 ng/mL.

With `CN[C@H](C(=O)N[C@H](C(=O)N(C)[C@H](CC(C)C(=O)O)C(C)C)C(C)(C)C)C(C)(C)c1cn(C)c2ccccc12` (stereo partly shown), in experiment [3] (setting [4]), the IC50 was found to be 1.06 ng/mL.

In the experiment on human breast cancer MCF7, `CCOC(=O)/C(C)=C/[C@H](C(C)C)N(C)C(=O)[C@@H](NC(=O)[C@@H](NC)C(C)(C)c1cn(C)c2ccccc12)C(C)C` displayed an IC50 of 100 ng/mL (≈ 185 nM).

With `C=C1C[C@H](C)C(=O)N[C@@H](C)C(=O)N(C)[C@H](Cc2ccc(O)c(I)c2)C(=O)N[C@@H](C)C(=O)O[C@@H](C)C[C@@H](C)C1=O` [Compound 1, Geodiamolide G], the “IC50 Values HEY” value in experiment [1] stood at 8600 ng/mL (≈ 13100 nM). Moreover, the “IC50 Values U373” value in experiment [2] amounted to 7700 ng/mL (≈ 11700 nM).

In the case of `CN[C@H](C(=O)N[C@H](C(=O)N(C)[C@H](/C=C(\C)C(=O)O)C(C)C)C(C)(C)C)C(C)(C)c1c[nH]c2ccccc12` [Compound 2, Hemiasterlin A], the IC50 worked out at 7.6 ng/mL (≈ 14.8 nM) in experiment [1]; 1.5 ng/mL (≈ 2.93 nM) in experiment [2]; 0.00171 ng/mL (≈ 0.00334 nM) in the experiment on murine leukaemia P388; 1.54 ng/mL (≈ 3 nM) in the experiment with human breast cancer MCF7; 1.02 ng/mL in experiment [3] (setting [4]); 3 nM in experiment [3] (read-out: antimitotic IC50). Moreover, in experiment [3], the “lowest concentration causing maximal mitotic arrest” value came to 10 nM. In experiment [3], the “antimitotic activity, in words” value is “more potent than Taxol, Vinblastine and Nocodazole”. In addition, the mitotic spindle morphology entry in the experiment on MCF7 cells (at 2 nM) was “no completely normal spindles were seen”. Also, in the experiment with MCF7 cells (at 10 nM), the effect on microtubules result is listed as “caused microtubule depolymerisation in mitotic cells”.

As for `CN[C@H](C(=O)N[C@H](C(=O)N(C)[C@H](/C=C(\C)C(=O)O)C(C)C)C(C)C)C(C)(C)c1c[nH]c2ccccc12` [Compound 3, Hemiasterlin B], the IC50 in experiment [1] amounted to 16 ng/mL (≈ 32.1 nM); in the experiment with murine leukaemia P388, 7 ng/mL (≈ 14 nM); in the experiment with human breast cancer MCF7, 15 ng/mL (≈ 30.1 nM); in experiment [3] (setting [4]) it was 9.96 ng/mL.

On to `CN[C@H](C(=O)N[C@H](C(=O)N(C)[C@H](/C=C(\C)C(=O)O)C(C)C)C(C)(C)C)C(C)(C)c1cn(C)c2ccccc12` [Compound A, Hemiasterlin], for which the IC50 in experiment [1] was found to be 1.4 ng/mL (≈ 2.66 nM); in experiment [2], 12 ng/mL (≈ 22.8 nM); in the experiment on murine leukaemia P388, 0.0457 ng/mL (≈ 0.0868 nM); in the experiment on human breast cancer MCF7 it was 0.158 ng/mL (≈ 0.3 nM); in experiment [3] (setting [4]), 0.158 ng/mL; in experiment [3] (read-out: antimitotic IC50), 0.3 nM. Besides, the “in vivo tests, result in words” value in the experiment on P388 leukaemia cells (in vivo tests per NIH Publication No. 84-2635) was “cytotoxic”. Moreover, the long term survivors entry in the experiment on P388 leukaemia cells (mice injected with 1×10^6 P388 leukaemia cells, 5 daily doses of 0.45 μg) is reported as “several long term survivors”. In addition, in the experiment with P388 leukaemia cells (mice injected with 1×10^6 P388 leukaemia cells, 5 daily doses of 0.45 μg begun 24 hours after implantation), the “%TC” value came to 223%. In experiment [3], the “antimitotic activity, in words” value is “more potent than Taxol, Vinblastine and Nocodazole”.

Consider `COC(=O)Nc1nc2ccc(C(=O)c3cccs3)cc2[nH]1` [Nocodazole], for which the mitotic spindle morphology entry in the experiment on MCF7 cells (half-maximal concentrations) is “produced the same types of abnormal spindle as hemiasterlin A”. The effect on microtubules entry with MCF7 cells (high concentrations) is on record as “microtubule depolymerisation in mitotic cells”.

Consider `CC(=O)O[C@H]1C(=O)[C@@]2(C)[C@H]([C@H](OC(=O)c3ccccc3)[C@]3(O)C[C@H](OC(=O)[C@H](O)[C@@H](NC(=O)c4ccccc4)c4ccccc4)C(C)=C1C3(C)C)[C@]1(OC(C)=O)CO[C@@H]1C[C@@H]2O` [Taxol], for which, in the experiment with MCF7 cells (half-maximal concentrations), the mitotic spindle morphology result was “produced the same types of abnormal spindle as hemiasterlin A”. Further, the effect on microtubules entry in the experiment with MCF7 cells (high concentrations) is “causing bundling of cytoplasmic microtubules in interphase cells and very dense multiple asters in mitotic cells”.

Regarding `CC[C@]1(O)C[C@@H]2CN(CCc3c([nH]c4ccccc34)[C@@](C(=O)OC)(c3cc4c(cc3OC)N(C)[C@H]3[C@@](O)(C(=O)OC)[C@H](OC(C)=O)[C@]5(CC)C=CCN6CC[C@]43[C@@H]65)C2)C1` [Vinblastine], in the experiment with MCF7 cells (half-maximal concentrations), the mitotic spindle morphology result is given as “produced the same types of abnormal spindle as hemiasterlin A”. The effect on microtubules result in the experiment on MCF7 cells (high concentrations) is “microtubule depolymerisation in mitotic cells”.
